In patent EP2910557A1, “Enantiopure tetrasubstituted pyrrolidines as scaffolds for proteasome inhibitors and medicinal applications thereof” (Ikerchem, S.L., priority 2014, dated 2015):

What was measured:
Assay in all cases: Cancer cell growth inhibition, 72 h treatment
Type in all cases: cell-based
143b = details: Homo sapiens, Osteosarcoma 143b, Alamar Blue
Method: (§1) Cell culture-based assays were used to evaluate the ability of compounds of the invention to inhibit cancer cell growth.
(§2) Cells were obtained from the American Type Culture Collection (ATCC) and the European Collection of Cell Cultures. Cells were thawed in their appropriate media plus supplements (see table below). Cells were passaged at confluence by washing once in HBSS cation-free followed by a 3 minutes incubation with trypsin ([0.5 µg/ml]/EDTA [0.2 µg/ml]) (Gibco-BRL, 15400054) solution in HBSS at 37°C (except non-adherent cell lines - hematologic), and transferred to their appropriate media plus supplements. Prior to seeding at defined cell concentration, cells were recovered in medium, centrifuged, taken up in medium and counted.
(§3) All treatments were performed in triplicate. Experiments were carried out in 96-well cell culture plates (Cultek) and the cell lines seeded at the density mentioned in the table above and cultured at 37°C with 5% CO2. After 24h, media were supplemented by 100 µl/well of diluted test compound at variable final concentrations and incubated for 72 hours. Then, AlamarBlue® Reagent (Biosource DAL1100) was added to each well and incubated at 37°C for 4 hours. Relative fluorescent intensity that correlates with the number of living cells was read in a Cytofluor plate reader (Millipore) at 535/590 nm (Excitation/emission). After reading the AlamarBlue® signal, the hexosaminidase activitity was measured according to the following protocol: medium was removed and cells were washed once with PBS. 60 µl of substrate solution (p-nitrophenol-N-acetyl-beta-D-glucosaminide 7.5 mM [Sigma N-9376], sodium citrate 0.1 M, pH 5.0, 0.25% Triton X-1 00) was added to each well and incubated at 37°C for 1-2 hours; after this incubation time, a bright yellow colour appears; then, plates could be developed by adding 90 µl of developer solution (Glycine 50 mM, pH 10.4; EDTA 5 mM), and absorbance was recorded at 405 nm.
(§4) Note: In all cases assays were performed in Alamar Blue with the exception of those indicated (* = Hexosaminidase assay)

A431 = details: Homo sapiens, A-431, Epidermoid A431, Alamar Blue
Method: as §1, §2, §3, §4

A549 = details: Homo sapiens, Lung cancer A549, Alamar Blue
Method: as §1, §2, §3, §4

COLO 205 = details: Homo sapiens, Colon cancer COLO 205, Alamar Blue
Method: as §1, §2, §3, §4

Daoy = details: Homo sapiens, Brain Daoy, Alamar Blue
Method: as §1, §2, §3, §4

HCT-116 = details: Homo sapiens, Colon cancer HCT-116, Alamar Blue
Method: as §1, §2, §3, §4

HT-1080 = details: Homo sapiens, Fibrosarcoma HT-1080, Alamar Blue
Method: as §1, §2, §3, §4

HT-29 = details: Homo sapiens, Colon cancer HT-29, Alamar Blue
Method: as §1, §2, §3, §4

HeLa = details: Homo sapiens, Cervical HeLa, Alamar Blue
Method: as §1, §2, §3, §4

HepG2 = details: Homo sapiens, Liver cancer HepG2, Alamar Blue
Method: as §1, §2, §3, §4

Jurkat = details: Homo sapiens, Hematologic Jurkat, Alamar Blue
Method: as §1, §2, §3, §4

K562 = details: Homo sapiens, Hematologic K562, Alamar Blue
Method: as §1, §2, §3, §4

LS174T = details: Homo sapiens, Colon cancer LS174T, Alamar Blue
Method: as §1, §2, §3, §4

LoVo = details: Homo sapiens, Colon cancer LoVo, Alamar Blue
Method: as §1, §2, §3, §4

MCF-7 = details: Homo sapiens, MCF7, Breast cancer MCF-7, Alamar Blue
Method: as §1, §2, §3, §4

MDA-MB-231 = details: Homo sapiens, Breast cancer MDA-MB-231, Alamar Blue
Method: as §1, §2, §3, §4

MIA PaCa-2 = details: Homo sapiens, Pancreatic cancer MIA PaCa-2, Alamar Blue
Method: as §1, §2, §3, §4

NCI-H1650 = details: Homo sapiens, Lung cancer NCI-H1650, Alamar Blue
Method: as §1, §2, §3, §4

NCI-H1975 = details: Homo sapiens, Lung cancer NCI-H1975, Alamar Blue
Method: as §1, §2, §3, §4

NCI-H358 = details: Homo sapiens, Lung cancer NCI-H358, Alamar Blue
Method: as §1, §2, §3, §4

OVCAR-3 = details: Homo sapiens, Ovarian cancer OVCAR-3, Alamar Blue
Method: as §1, §2, §3, §4

PC-3 = details: Homo sapiens, Prostate cancer PC-3, Alamar Blue
Method: as §1, §2, §3, §4

RAMOS = details: Homo sapiens, Hematologic RAMOS, Alamar Blue
Method: as §1, §2, §3, §4

RCC 786-O = details: Homo sapiens, 786-0, Renal RCC 786-O, Alamar Blue
Method: as §1, §2, §3, §4

SK-BR-3 = details: Homo sapiens, Breast cancer SK-BR-3, Alamar Blue
Method: as §1, §2, §3, §4

SK-HEP-1 = details: Homo sapiens, SK-HEP1, Liver cancer SK-HEP-1, Alamar Blue
Method: as §1, §2, §3, §4

SK-OV-3 = details: Homo sapiens, Ovarian cancer SK-OV-3, Alamar Blue
Method: as §1, §2, §3, §4

SW480 = details: Homo sapiens, Colon cancer SW480, Alamar Blue
Method: as §1, §2, §3, §4

T47D = details: Homo sapiens, Breast cancer T47D, Alamar Blue
Method: as §1, §2, §3, §4

U-373 MG = details: Homo sapiens, U373 MG, Brain U-373 MG, Alamar Blue
Method: as §1, §2, §3, §4

U-87 MG = details: Homo sapiens, Brain U-87 MG, Hexosaminidase assay (*)
Method: as §1, §2, §3, §4

CC(C)C[C@H](NC(=O)[C@H]1N[C@@H](c2ccccc2)[C@@H]([N+](=O)[O-])[C@@H]1c1ccccc1)B(O)O [Example 4, (R)-3-methyl-1-((2S,3R,4S,5S)-4-nitro-3,5-diphenylpyrrolidine-2-carboxamido)butylboronic acid]
EC50 (143b): 2000 nM | EC50 (A431): 970 nM | EC50 (A549): 4000 nM | EC50 (COLO 205): 3800 nM | EC50 (Daoy): 1300 nM | EC50 (HCT-116): 1300 nM | EC50 (HT-1080): 1700 nM | EC50 (HT-29): 1500 nM | EC50 (HeLa): 8300 nM | EC50 (HepG2): 380 nM | EC50 (Jurkat): 1700 nM | EC50 (K562): 2000 nM | EC50 (LS174T): 550 nM | EC50 (LoVo): 3090 nM | EC50 (MCF-7): 23000 nM | EC50 (MDA-MB-231): 2100 nM | EC50 (MIA PaCa-2): 3000 nM | EC50 (NCI-H1650): 790 nM | EC50 (NCI-H1975): 41000 nM | EC50 (NCI-H358): 2400 nM | EC50 (OVCAR-3): 890 nM | EC50 (PC-3): 2300 nM | EC50 (RAMOS): 1000 nM | EC50 (RCC 786-O): 1700 nM | EC50 (SK-BR-3): 760 nM | EC50 (SK-HEP-1): 290 nM | EC50 (SK-OV-3): 2200 nM | EC50 (SW480): 610 nM | EC50 (T47D): 2100 nM | EC50 (U-373 MG): 7300 nM | EC50 (U-87 MG): 4200 nM
